Columns and labels:
wireworm = assay: efficacy trial against endo-parasite wireworm; type: in vivo, cattle; conditions: ~200 kg cow, slaughtered 3 weeks after treatment
Procedure: The purpose of the trial was to establish the efficacy of biologically active agent when administered by the system according to the present invention in treating cattle for the endo-parasite wireworm.
Two cattle of similar age and weight (˜200 kg) were infected with wireworm parasite to the level of 6000 to 8000 worm eggs per gram of faeces. One cow was treated with the biologically active agent in its ‘pour on’ form and the other cattle were treated with two dosage projectiles fired from a distance of approx 20 meters with a CO2 propelled launcher with an impact velocity of about 130 ft/sec.
Each projectile was spherical and made from soft gelatine compound with the shell being of about 2 mm thick. The size was sufficient to hold about 10 ml of the liquid biologically active agent comprising the following constituent:
10 mg of abamectin (at a dosage concentration of 1 mg per 10 kg of body mass)
5% solution of the solvent/transdermal carrier propylene glycol (the proprietary brand Icinol)
a standard turquoise, inert pharmaceutical colorant known as FC & D blue
The impact area of the ruptured projectiles was the hind quarter and lower neck/shoulder of the cattle.
The cattle were slaughtered 3 weeks after treatment and the stomach contents/linings examined under laboratory conditions.

[1] = drug trials: absorption of abamectin from projectile vs Pour On; type: in vivo; conditions: applied in a projectile at 5 g/l
From the text: The system has been adapted for use in Africa for treating antelope species. Each projectile was designed to treat a 100 kg animal.

[2] = primate skin types in contact with pure ivermectin; cited from earlier work

Substance	free of parasite (wireworm; 'pour on' form)	free of internal parasite infection (wireworm; two dosage projectiles) [%]	absorption of the active compared with traditional Pour On application ([1]; antelope species)	absorption of the active compared with traditional Pour On application ([1]; cattle)	active agent absorbed into the bloodstream [2]
abamectin	approx 96%	100	at least as good as	at least as good as	–
ivermectin [pure ivermectin]	–	–	–	–	less than 1%

Reference: patent publication US8802135B2, “Delivery system for remote treatment of an animal” (SmartVet Pty Ltd., priority 2006, dated 2014)
